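Compound exposure: 48 hours, 5 concentrations, 96-well plates. Abbreviation: GI50, concentration required for 50% inhibition of growth. TGI marks complete inhibition of growth.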
Legend:
Assay in all cases: NCI anticancer screen, dose series, 48 h
786-0 renal = system: 786-0 renal
A498 renal = system: A498 renal
A549 NSCLC = system: A549 NSCLC
ACHN renal = system: ACHN renal
BT-549 breast = system: BT-549 breast
CAKI-1 renal = system: CAKI-1 renal
CCRF-CEM leukemia = system: CCRF-CEM leukemia
COLO 205 colon = system: COLO 205 colon
DU-145 prostate = system: DU-145 prostate
EKVX NSCLC = system: EKVX NSCLC
HCC-2998 colon = system: HCC-2998 colon
HCT-116 colon = system: HCT-116 colon
HCT-15 colon = system: HCT-15 colon
HL-60(TB) leukemia = system: HL-60(TB) leukemia
HOP-62 NSCLC = system: HOP-62 NSCLC
HOP-92 NSCLC = system: HOP-92 NSCLC
HS 578T breast = system: HS 578T breast
HT29 colon = system: HT29 colon
IGROV1 ovarian = system: IGROV1 ovarian
K-562 leukemia = system: K-562 leukemia
KM12 colon = system: KM12 colon
LOX IMVI melanoma = system: LOX IMVI melanoma
M14 melanoma = system: M14 melanoma
MALME-3M melanoma = system: MALME-3M melanoma
MCF7 breast = system: MCF7 breast
MDA-MB-231 breast = system: MDA-MB-231 breast
MDA-MB-435 = system: MDA-MB-435
MOLT-4 leukemia = system: MOLT-4 leukemia
NCI-H226 lung = system: NCI-H226 lung
NCI-H23 lung = system: NCI-H23 lung
NCI-H460 lung = system: NCI-H460 lung
NCI-H522 lung = system: NCI-H522 lung
NCI/ADR-RES ovarian = system: NCI/ADR-RES ovarian
OVCAR-3 ovarian = system: OVCAR-3 ovarian
OVCAR-4 ovarian = system: OVCAR-4 ovarian
OVCAR-5 ovarian = system: OVCAR-5 ovarian
OVCAR-8 ovarian = system: OVCAR-8 ovarian
PC-3 prostate = system: PC-3 prostate
RPMI-8226 leukemia = system: RPMI-8226 leukemia
RXF 393 renal = system: RXF 393 renal
SF-268 CNS = system: SF-268 CNS
SF-295 CNS = system: SF-295 CNS
SF-539 CNS = system: SF-539 CNS
SK-MEL-2 melanoma = system: SK-MEL-2 melanoma
SK-MEL-28 melanoma = system: SK-MEL-28 melanoma
SK-MEL-5 melanoma = system: SK-MEL-5 melanoma
SK-OV-3 ovarian = system: SK-OV-3 ovarian
SN12C renal = system: SN12C renal
SNB-19 CNS = system: SNB-19 CNS
SNB-75 CNS = system: SNB-75 CNS
SR leukemia = system: SR leukemia
SW-620 colon = system: SW-620 colon
T-47D breast = system: T-47D breast
TK-10 renal = system: TK-10 renal
U251 CNS = system: U251 CNS
UACC-257 melanoma = system: UACC-257 melanoma
UACC-62 melanoma = system: UACC-62 melanoma
UO-31 renal = system: UO-31 renal

CN1CCN(Cc2ccc(NC(=O)c3[nH]ncc3Nc3ncnc4c3CCC4)cc2)CC1
GI50 (786-0 renal): 2.24 µM | TGI (786-0 renal): 11 µM | GI50 (A498 renal): 1.6 µM | TGI (A498 renal): 4.45 µM | GI50 (A549 NSCLC): 2.18 µM | TGI (A549 NSCLC): 12.8 µM | GI50 (ACHN renal): 1.32 µM | TGI (ACHN renal): 9.09 µM | GI50 (BT-549 breast): 2.14 µM | TGI (BT-549 breast): 6.97 µM | GI50 (CAKI-1 renal): 2.73 µM | TGI (CAKI-1 renal): 11.1 µM | GI50 (CCRF-CEM leukemia): 0.611 µM | TGI (CCRF-CEM leukemia): 11 µM | GI50 (COLO 205 colon): 0.475 µM | TGI (COLO 205 colon): 2.25 µM | GI50 (DU-145 prostate): 1.64 µM | TGI (DU-145 prostate): 10.7 µM | GI50 (EKVX NSCLC): 2.38 µM | TGI (EKVX NSCLC): 6.6 µM | GI50 (HCC-2998 colon): 3.02 µM | TGI (HCC-2998 colon): 11.6 µM | GI50 (HCT-116 colon): 0.454 µM | TGI (HCT-116 colon): 11.4 µM | GI50 (HCT-15 colon): 1.67 µM | TGI (HCT-15 colon): 12.6 µM | GI50 (HL-60(TB) leukemia): 0.728 µM | TGI (HL-60(TB) leukemia): 3.29 µM | GI50 (HOP-62 NSCLC): 2.69 µM | TGI (HOP-62 NSCLC): 11.5 µM | GI50 (HOP-92 NSCLC): 4.43 µM | TGI (HOP-92 NSCLC): 8.33 µM | GI50 (HS 578T breast): 0.705 µM | TGI (HS 578T breast): 6.28 µM | GI50 (HT29 colon): 2.17 µM | TGI (HT29 colon): 8.79 µM | GI50 (IGROV1 ovarian): 1.45 µM | TGI (IGROV1 ovarian): 14.6 µM | GI50 (K-562 leukemia): 0.648 µM | TGI (K-562 leukemia): 12.1 µM | GI50 (KM12 colon): 0.767 µM | TGI (KM12 colon): 11.1 µM | GI50 (LOX IMVI melanoma): 0.817 µM | TGI (LOX IMVI melanoma): 3.1 µM | GI50 (M14 melanoma): 0.948 µM | TGI (M14 melanoma): 13.4 µM | GI50 (MALME-3M melanoma): 3.26 µM | TGI (MALME-3M melanoma): 8.06 µM | GI50 (MCF7 breast): 0.372 µM | TGI (MCF7 breast): 11.1 µM | GI50 (MDA-MB-231 breast): 2.98 µM | TGI (MDA-MB-231 breast): 7.8 µM | GI50 (MDA-MB-435): 1.8 µM | TGI (MDA-MB-435): 12.3 µM | GI50 (MOLT-4 leukemia): 0.447 µM | TGI (MOLT-4 leukemia): 3 µM | GI50 (NCI-H226 lung): 0.755 µM | TGI (NCI-H226 lung): 13 µM | GI50 (NCI-H23 lung): 1.8 µM | TGI (NCI-H23 lung): 6.79 µM | GI50 (NCI-H460 lung): 1.87 µM | TGI (NCI-H460 lung): 10.6 µM | GI50 (NCI-H522 lung): 1.54 µM | TGI (NCI-H522 lung): 8.79 µM | GI50 (NCI/ADR-RES ovarian): 6.17 µM | TGI (NCI/ADR-RES ovarian): 45.1 µM | GI50 (OVCAR-3 ovarian): 1.09 µM | TGI (OVCAR-3 ovarian): 4.6 µM | GI50 (OVCAR-4 ovarian): 1.49 µM | TGI (OVCAR-4 ovarian): 6.67 µM | GI50 (OVCAR-5 ovarian): 3.59 µM | TGI (OVCAR-5 ovarian): 16.2 µM | GI50 (OVCAR-8 ovarian): 3.27 µM | TGI (OVCAR-8 ovarian): 13.5 µM | GI50 (PC-3 prostate): 1.96 µM | TGI (PC-3 prostate): 12.1 µM | GI50 (RPMI-8226 leukemia): 2.82 µM | TGI (RPMI-8226 leukemia): 7.39 µM | GI50 (RXF 393 renal): 1.4 µM | TGI (RXF 393 renal): 3.23 µM | GI50 (SF-268 CNS): 2.14 µM | TGI (SF-268 CNS): 7.78 µM | GI50 (SF-295 CNS): 2.24 µM | TGI (SF-295 CNS): 12 µM | GI50 (SF-539 CNS): 0.52 µM | TGI (SF-539 CNS): 2.61 µM | GI50 (SK-MEL-2 melanoma): 2.14 µM | TGI (SK-MEL-2 melanoma): 6.63 µM | GI50 (SK-MEL-28 melanoma): 2.61 µM | TGI (SK-MEL-28 melanoma): 13.1 µM | GI50 (SK-MEL-5 melanoma): 0.874 µM | TGI (SK-MEL-5 melanoma): 13.3 µM | GI50 (SK-OV-3 ovarian): 0.185 µM | TGI (SK-OV-3 ovarian): 17.5 µM | GI50 (SN12C renal): 1.01 µM | TGI (SN12C renal): 20.2 µM | GI50 (SNB-19 CNS): 2.87 µM | TGI (SNB-19 CNS): 14.8 µM | GI50 (SNB-75 CNS): 0.0341 µM | TGI (SNB-75 CNS): 3.2 µM | GI50 (SR leukemia): 0.438 µM | TGI (SR leukemia): 3.05 µM | GI50 (SW-620 colon): 0.836 µM | TGI (SW-620 colon): 10.3 µM | GI50 (T-47D breast): 3.72 µM | TGI (T-47D breast): 22.7 µM | GI50 (TK-10 renal): 4.02 µM | TGI (TK-10 renal): 8.85 µM | GI50 (U251 CNS): 1.48 µM | TGI (U251 CNS): 12.4 µM | GI50 (UACC-257 melanoma): 3.49 µM | TGI (UACC-257 melanoma): 15.4 µM | GI50 (UACC-62 melanoma): 3.24 µM | TGI (UACC-62 melanoma): 13.5 µM | GI50 (UO-31 renal): 1.5 µM | TGI (UO-31 renal): 7.61 µM

— PubChem BioAssay (NCI)
